One may read the melting point as the temperature of the solid-liquid transition.

In turn, `Cc1ccc(NC(=O)C=CC(=O)O)cc1` returned a melting point of 205 °C.

Regarding `N#Cc1ccccc1CN1CCOCC1`, the melting point was 49 to 50 °C.

With `N#CCc1cc(C(F)(F)F)ccc1Cl`, the melting point amounted to 32 °C.

As for `Cc1cc(=O)oc2cc(O)c(Cl)cc12`, the melting point fell in the range of 278 to 280 °C.

`C=C(C)C1(O)C2OC(=O)C1C1(O)C3OC3C3(CO3)C1(C)C2O` (stereo not drawn) displayed a melting point of 225 °C.

On to `CC1(C)C(=O)Nc2ccccc21`, for which the melting point stood at 154 °C.

On to `CCn1ccc2ccccc21`, for which the melting point was 105 °C.

As to `CCOP(=S)(Oc1ccc(C#N)cc1)c1ccccc1` (stereo not drawn), the melting point amounted to 83 °C.

`Cc1ccc(O)c(C(=O)C(F)(F)F)c1` had a melting point of 41 °C.

Regarding `CCCCCCCCC(NC(=O)OCC1c2ccccc2-c2ccccc21)C(=O)O` (stereo not drawn), the melting point came to 143 °C.

Consider `CC(C)Cc1ccc(C(=O)C=Cc2cccc([N+](=O)[O-])c2)cc1`, for which the melting point fell in the range of 104 to 107 °C.

Turning to `O=C(O)c1ccncc1`, the melting point was determined as 315 °C.

The compound `O=C(Oc1c(F)c(F)c(F)c(F)c1F)c1ccnc(N2CCSCC2)c1` gave a melting point of 99 to 100 °C.

For the compound `N#Cc1c(-c2ccc(Cl)cc2)n[nH]c1N`, the melting point is 216 to 217 °C.

The compound `CCOC(=O)C12C(c3ccccc3OP1(=O)OCC)C1(C(=O)OCC)C2c2ccccc2OP1(=O)OCC` (stereo not drawn) showed a melting point of 249 to 251 °C.

`CCCCCCCc1ccc(O)cc1` gave a melting point of 26.5 °C.

Compound `O=[N+]([O-])c1ccc2c(c1)=NC(=c1ccc(=C3N=c4cc([N+](=O)[O-])ccc4=C3O)cc1)C=2O` came in with a melting point of 360 °C.

For the compound `O=C1CCOc2ccc(Cl)cc21`, the melting point came out at 102 °C.

Compound `COC(=O)c1cc2ccccc2c(O)c1C(=O)OC` returned a melting point of 105 °C.

`c1cncc(C2CCCCN2)c1` (stereo not drawn) yielded a melting point of 9 °C.

Take `CSC(SC)=C(C#N)C(=O)c1cccc(C(F)(F)F)c1`: the melting point was 60 °C.

`CC(C)(C)[Si](Cl)(Cl)Cl` displayed a melting point of 98 °C.

As for `COC(=O)/C(=C/c1ccc([N+](=O)[O-])cc1)c1ccccc1C(=O)OC`, the melting point was in the range of 121 to 122 °C.

`CCCCCCCCCCCO` came in with a melting point of 19 °C.

Take `c1ccc(-c2nc3ccccc3[nH]2)cc1`: the melting point fell in the range of 293 to 296 °C.

In turn, `CC1COCc2cc3c(cc21)C(C)(C)C(C)C3(C)C` (stereo not drawn) showed a melting point of -5 °C.

For the compound `Cc1nc(-c2ccc(S(=O)(=O)N3CCOCC3)cc2)c(-c2ccc(S(=O)(=O)N3CCOCC3)cc2)o1`, the melting point lay in the range of 245 to 248 °C.

As to `O=C(O)C1(c2ccccc2)CC1`, the melting point is 87 °C.

As to `CC1CCCC(C)(C)C1=O` (stereo not drawn), the melting point is -31.8 °C.

Consider `Cc1ccc(-c2onc(C(=O)c3ccc4ccccc4c3)c2S(=O)(=O)c2ccccc2)cc1`, for which the melting point is 108 °C.

Regarding `O=C(N=NC(=O)OCc1ccccc1)OCc1ccccc1`, the melting point was in the range of 44 to 52 °C.

`O=C(O)c1cc(Cl)ccc1F` showed a melting point of 149 °C.

On to `NC(=O)c1ncccc1O`, for which the melting point worked out at 195 °C.

`Sc1cc(Cl)cc(Cl)c1` returned a melting point of 59 to 61 °C.

`CCC=C(C)C` had a melting point of -135 °C.

The compound `Cc1ccc(S(=O)(=O)n2ccnc2)cc1` showed a melting point of 75 to 80 °C.

`FC(F)(F)c1ccc(P(c2ccc(C(F)(F)F)cc2)c2ccc(C(F)(F)F)cc2)cc1` yielded a melting point of 72 to 75 °C.

In the case of `CCOC(=O)c1cnc2sc(C(F)(F)F)nn2c1=N`, the melting point was determined as 198 °C.

`Nc1ccnc2ccccc12`: the melting point was 155 °C.

Take `O=C(Nc1ccccc1/C=C/c1ccccc1)c1ccccc1`: the melting point came to 168 °C.

Turning to `c1ccc(C2=NCCN2)cc1`, the melting point turned out to be 96.5 °C.

In turn, `CC(C)P(c1ccccc1)c1ccccc1` came in with a melting point of 40 °C.

`O=C1C=CC(=O)c2c(Cl)cccc21` displayed a melting point of 163 °C.

`CC(=O)Nc1ccc(N(Nc2ccccc2)C(C)=O)cc1` yielded a melting point of 199 °C.

The compound `N#C/C(=N/Nc1ccc(Cl)cc1)c1nc(-c2ccccc2)cs1` yielded a melting point of 168 °C.

Consider `COc1ccc(Cl)cc1C=O`, for which the melting point was 77 °C.

Compound `O=C(O)COc1cccc(CBr)c1` came in with a melting point of 126 °C.

On to `O=CC(C=O)c1ccc2ccccc2n1`, for which the melting point lay within 198 to 202 °C.

Take `COC(=O)C1(S(=O)(=O)c2ccc(Br)cc2)CCCC1`: the melting point stood at 104 °C.

For the compound `O=C(O)Cc1cccc(I)c1`, the melting point was 130 °C.

In turn, `N#Cc1ccc(Cl)cc1F` returned a melting point of 60 °C.

With `CCCCCCc1ccc(C(=O)O)cc1`, the melting point is 94 to 99 °C.

`O=C(O)c1cccc(Oc2ccccn2)c1` gave a melting point of 108 to 112 °C.

On to `O=C1C(=Cc2ccc(Cl)cc2)SC(=S)N1CNc1ccc([N+](=O)[O-])cc1`, for which the melting point lay within 216 to 217 °C.

`Cc1ccc(-c2ccccc2)cc1N`: the melting point is 58 to 60 °C.

As to `OCc1cccc2c1OCCO2`, the melting point is 54 to 55 °C.

Compound `O=C(Nc1ccccn1)C(F)(F)C(F)(F)C(F)(F)C(F)(F)C(F)(F)C(F)(F)C(F)(F)C(F)(F)F` returned a melting point of 66 °C.

Consider `O=C1CCCCCO1`, for which the melting point is -1 °C.

`CC(C)(C)OC(=O)Nc1ccsc1` returned a melting point of 138 to 140 °C.

Turning to `Cc1ccc(C=C(Oc2ccccc2)c2nc3ccccc3s2)cc1`, the melting point was in the range of 161 to 165 °C.

`Nc1cccc(Cl)n1`: the melting point is 71 °C.

`CC(C)(C)c1cc2c(O)c(c1)Cc1cc(C(C)(C)C)cc(c1O)Cc1cc(C(C)(C)C)cc(c1O)Cc1cc(C(C)(C)C)cc(c1O)C2` yielded a melting point of 300 °C.

On to `CC(=O)O[C@@H]1[C@@H](OC(C)=O)[C@H](C)O[C@@H](OCc2ccccc2)[C@@H]1OC(C)=O`, for which the melting point was in the range of 110 to 113 °C.

Compound `N#CC(C(N)=O)=C(SCc1ccccc1)SCc1ccccc1` yielded a melting point of 104 °C.

`CC#CC(C)CC` (stereo not drawn) gave a melting point of -108 °C.

For the compound `O=Cc1ccc(-n2cccc2)cc1`, the melting point was 94 to 95 °C.

Compound `Ic1ccccc1I` came in with a melting point of 27 °C.

On to `CC(C(=O)O)c1ccc(-c2ccccc2)c(F)c1` (stereo not drawn), for which the melting point turned out to be 110 °C.

Turning to `CCCCCCCCC=CCCCCCCCC(=O)OCCCC`, the melting point is -26.5 °C.

Compound `O=C1OC(c2cc(Br)c(O)c(Br)c2)(c2cc(Br)c(O)c(Br)c2)c2ccccc21` displayed a melting point of 296 °C.

`BrCc1cccc(-n2cccc2)c1` showed a melting point of 54 to 55 °C.

For `O=[N+]([O-])c1ccc(C(O)C(O)CO)cc1` (stereo not drawn), the melting point was in the range of 93 to 97 °C.

`Nc1ccc(Nc2ccc(N)cc2)cc1` registered a melting point of 158 °C.

The compound `COc1cc(/C=C/C(=O)CC(=O)/C=C/c2ccc(O)c(OC)c2)ccc1O` returned a melting point of 183 °C.

For `COc1cc(F)c(F)cc1C#N`, the melting point turned out to be 99 °C.

On to `Nc1c(Cl)cc(Br)cc1Cl`, for which the melting point was 87 °C.

On to `COC(=O)c1nccnc1N`, for which the melting point amounted to 171 °C.

As for `CN1CCN(C(=O)OC2C3=C(SCCS3)C(=O)N2c2ccc3ccc(Cl)nc3n2)CC1` (stereo not drawn), the melting point stood at 280 °C.

The compound `NNC(=O)c1ccc(O)c(N)c1` gave a melting point of 251 °C.

In turn, `IC(I)=C(I)I` gave a melting point of 187 °C.

As to `OCc1nc2ccccc2s1`, the melting point came to 98 °C.

In turn, `Cc1cc(Br)ccc1C(=O)O` had a melting point of 183 °C.

In turn, `O=C(Nc1ccccc1)Nc1nnc(C(F)(F)F)s1` showed a melting point of 149 to 151 °C.

With `CC(=O)c1ccc(CCc2ccccc2)cc1`, the melting point was in the range of 68 to 70 °C.

`CCOC(=O)c1nn(-c2ccc(Cl)cc2Cl)c(-c2ccc([N+](=O)[O-])cc2)c1S(=O)(=O)c1ccccc1` yielded a melting point of 118 °C.

`C[Si](C)(C)O[Si](C)(C)O[Si](C)(C)O[Si](C)(C)C` had a melting point of -68 °C.

The compound `Cc1ccc(F)cc1N` gave a melting point of 39 °C.

`O=C(Cl)c1cc2ccccc2o1` registered a melting point of 54 to 55 °C.

Compound `Cc1ccccc1NC(=S)c1cc(C(C)(C)C)c(O)c(C(C)(C)C)c1` yielded a melting point of 257 to 258 °C.

For `CCC(O)(CC)C1(C)CCC(C(=O)OC)C(C)(C)O1` (stereo not drawn), the melting point stood at 162 °C.

Regarding `Nc1ccccc1/C=C/c1cc(/C=C/c2cccc([N+](=O)[O-])c2)c([N+](=O)[O-])cc1[N+](=O)[O-]`, the melting point came to 250 °C.

In turn, `COC(=O)C1(S(=O)(=O)c2ccc(Br)cc2)CCCCC1` registered a melting point of 112 °C.

Take `O=C(NC1(C(=O)O)Cc2ccccc2C1)OCC1c2ccccc2-c2ccccc21`: the melting point is 198 to 202 °C.

The compound `O=C(C1=NOC2C(=O)N(c3cccc([N+](=O)[O-])c3)C(=O)C12)c1ccccc1` (stereo not drawn) gave a melting point of 173 °C.

As for `NNC(=O)c1ccc2c(c1)OCO2`, the melting point is 174 °C.

As for `N#Cc1cc(Cl)ccc1O`, the melting point was 165 to 168 °C.

Consider `COc1ccc(NC(=O)/C(C)=N\NC(N)=O)cc1`, for which the melting point lay within 226 to 228 °C.

Regarding `Cc1cc(Br)ccc1N=C=O`, the melting point came out at 49 °C.

Compound `CC=NO` displayed a melting point of 45 °C.

In turn, `Brc1coc2ccccc12` gave a melting point of 35 to 38 °C.

Take `NNC(=O)COc1ccc([N+](=O)[O-])cc1`: the melting point stood at 189 °C.

Compound `Cc1cc(C)c2c(c1C)CC2=O` returned a melting point of 98 °C.

As to `CCNc1nc(Cl)nc(NCC(=O)OCC)n1`, the melting point is 228 °C.

`Cc1nc2cc(-c3ccccc3)ccc2o1` yielded a melting point of 63 °C.

`Cc1nn(-c2cc(NS(C)(=O)=O)c(Cl)cc2Cl)c(=O)n1C(F)F`: the melting point is 122 °C.

`O=C(O)c1cc(F)ccc1O`: the melting point was 179 to 182 °C.

`NCC1OC(OC2C(N)CC(N)C(O)C2OC2OC(CO)C(O)C2O)C(N)C(O)C1O` (stereo not drawn): the melting point was 194 °C.

In turn, `COC1=C(OC)C(C(O)COS(=O)(=O)c2ccc(C)cc2)OC1=O` (stereo not drawn) came in with a melting point of 88 to 90 °C.
